Data on six molecules can be found in patent US20110245335A1, “NEW INHIBITORS FOR TREATING DISEASES ASSOCIATED WITH AN EXCESS TRANSPORT OF HYALURONAN” (priority 2008, published 2011).

One data set has as its system hyaluronan export. Description: Assay for hyaluronan transport/export inhibitors in fibroblast cell culture (hyaluronan in culture medium by ELISA). The data set is classed as cell-based. The following applies: 2 days at 37° C. The protocol:
Trypsinised fibroblasts were suspended in Dulbeccós medium at 10^5 cells/ml and 100 μl aliquots were transferred to a 96 well microtiter plate. The first row received 200 μl of the suspension and 20 μl of the inhibitors of the invention dissolved in phosphate buffered saline at concentrations of 4 mM. A serial dilution of the inhibitors was established by transfer of 100 μl aliquots from the first row to the following rows. All experiments were performed in duplicates. […] The cells were incubated for 2 days at 37° C. and aliquots (5 and 20 μl) of the culture medium were used for measurement of the hyaluronan concentration in the cell culture medium by an ELISA [125]. Briefly, the wells of a 96 well Covalink-NH-microtiter plate (NUNC) were coated with 100 μl of a mixture of […] of hyaluronan (Healon®), 9.2 μg/ml of N-Hydroxysuccinimide-3-sulfonic acid and 615 μl/ml of 1-ethyl-3-(3-dimethylaminopropyl)-carbodiimide for 2 hours at room temperature and overnight at 4° C. The wells were washed three times with 2 M NaCl, 41 mM MgSO4, 0.05% Tween-20 in 50 mM phosphate buffered saline pH 7.2 (buffer A) and once with 2 M NaCl, 41 mM MgSO4, in phosphate buffered saline pH 7.2. Additional binding sites were blocked by incubation with 300 μl of 0.5% bovine serum albumin in phosphate buffered saline for 30 min at 37° C. Calibration of the assay was performed with standard concentrations of hyaluronan ranging from 15 ng/ml to 6000 ng/ml in equal volumes of culture medium as used for measurement of the cellular supernatants. A solution (50 μl) of the biotinylated hyaluronan binding fragment of aggrecan (Calbiochem) in 1.5 M NaCl, 0.3 M guanidinium hydrochloride, 0.08% bovine serum albumin 0.02% NaN3 25 mM phosphate buffer pH 7.0 was preincubated with 50 μl of the standard hyaluronan solutions or cellular supernatants for 1 hour at 37° C. The mixtures were transferred to the hyaluronan-coated test plate and incubated for 1 hour at 37° C. The microtiter plate was washed three times with buffer A and incubated with 100 μl/well of a solution of streptavidin-horseraddish-peroxidase (Amersham) at a dilution of 1:100 in phosphate buffered saline, 0.1% Tween-20 for 30 min at room temperature. The plate was washed five times with buffer A and the colour was developed by incubation with a 100 μl/well of a solution of 5 mg o-phenylenediamine and 5 μl 30% H2O2 in 10 ml of 0.1 M citrate-phosphate buffer pH 5.3 for 25 min at room temperature. The adsorption was read at 490 nm. The concentrations in the samples were calculated from a logarithmic regression curve of the hyaluronan standard solutions.

The nature of data set [1]: pKa of the acidic moiety (stated in design rationale, no method). The data set is classed as physicochemical. The following applies: approximate values given in design rationale; no method described; read-out: pKa of the carboxylic moiety or its replacement.
Data set [2] concerns II-1α activated bovine cartilage explants. The following applies: ref [14]; cited from earlier work.

What is called IC50 is the concentration needed to halve the response being measured. Read a high IC50 as a need for much substance. `CC(=O)Nc1c(O)cc(O)cc1Oc1ccc(NC/C=C/c2ccccc2)cc1C(=O)O` [Compound 96]: the IC50 in the data set on hyaluronan export (Fibroblast, 48 h) is 10 µM.

Usually pKa stands for the negative logarithm of the acid dissociation constant. In the data set on hyaluronan export (Fibroblast, 48 h), `CC(=O)Nc1c(O)cc(O)cc1Oc1ccc(Cl)cc1S(=O)(=O)O` [Compound 99] displayed an IC50 of about 80 µM. For the same molecule, the pKa in data set [1] is about 1.

`CC(=O)Nc1c(O)cccc1Oc1ccccc1C(=O)NO` [Compound 97] registered an IC50 in the data set with hyaluronan export (listed as No. 97) of 30 µM. Moreover, the pKa in data set [1] was about 8.

With `CC(=O)Nc1ccccc1Oc1cccc(O)c1C(=O)O` [Compound 86], the “IC50 for hyaluronan export” value in the data set on hyaluronan export is “no inhibitory activity”. In addition, the pKa in data set [1] was about 3.

With `CCCOc1ccccc1-c1nc2nn[nH]c2c(=O)[nH]1` [zaprinast], in data set [2], the “infiltration of degrading enzymes” value is given as “reduced”; the “proteoglycan content and collagen degradation” value is recorded as “normalized”.

In the case of `CC(=O)Nc1c(O)cc(O)cc1Oc1cccc(N(C)C)c1C(=O)O` [Compound 98], in the data set with hyaluronan export (Fibroblast, 48 h), it took 200 µM to reach half-maximal inhibition (IC50).
